In experiment [1] the test system is CSCs in MDA-MB-231 breast tumor cells. Kind of experiment: 3D PEGDA hydrogel co-culture of MDA-MB-231 cancer cells with macrophages treated with Paclitaxel (MDA+Mac/PTX). Format: cell-based, human. As to the method: (§1) Polyethylene glycol was functionalized with acrylate end-groups by reaction with acryloyl chloride using well-established procedures to generate a photopolymerizable polyethylene glycol diacrylate (PEGDA). The PEGDA and a photoinitiator (4-(2-hydroxyethoxy)phenyl-(2-hydroxy-2-propyl) ketone (commercial name Irgacure-2959)) were dissolved in aqueous solution to generate a hydrogel precursor solution. Prior to cure, the hydrogel precursor solution was combined with MDA-MB-231 human breast cancer cells alone (MDA), with human spleen-derived macrophages alone (Mac) or with both (MDA+Mac).
(§2) To form the matrices, the cancer cells and/or macrophages were suspended in the PEGDA hydrogel precursor solution, the suspension was pipetted in a tissue culture plate as a thin film, and the film was photopolymerized with UV radiation to encapsulate the cells in the hydrogel matrix.
(§3) This co-culture system was also used to screen Paclitaxel (PTX) toxicity against CSCs. […] MDA cancer cells cultured alone with no PTX (MDA) grew by forming tumor spheres with mixed population of stem and differentiated cells and as shown the growing cells expressed CSC markers.

Experiment [2] has as its system MDA-MB-231 human breast cancer cells. The experiment in a line: 3D PEGDA hydrogel culture of MDA-MB-231 cancer cells alone treated with Paclitaxel (MDA+PTX). Format: cell-based. The method, then: as §1, §2, §3
The next experiment concerns MDA-MB-231 cells. Conditions: 2D tissue culture plates, previous studies; cited from earlier work.

Here are results for 1 compound from patent publication US20190048321A1, “Macrophage Enrichment of Cancer Stem Cells” (UNIVERSITY OF SOUTH CAROLINA, priority 2017, published 2019).

Turning to `CC(=O)O[C@H]1C(=O)[C@@]2(C)[C@H]([C@H](OC(=O)c3ccccc3)[C@]3(O)C[C@H](OC(=O)[C@H](O)[C@@H](NC(=O)c4ccccc4)c4ccccc4)C(C)=C1C3(C)C)[C@]1(OC(C)=O)CO[C@@H]1C[C@@H]2O` [PTX, Paclitaxel], the “cell growth / cell content” value in experiment [1] (MDA cancer cells with macrophages in 5 kPa PEGDA matrix, treated with PTX (FIG. 4a)) was “effective in halting cell growth and the cell content decreased”. The “expression of CSC markers (CD44, ABCG2, EGFR)” value in experiment [1] (MDA cancer cells with macrophages treated with PTX, with incubation (FIG. 4b-d)) is “sharply increased”. Further, in experiment [1] (MDA+Mac/PTX co-culture screen, MDA-MB-231 breast tumor cells), the “effectiveness against CSCs” value was “ineffective against CSCs”. For the same compound, the cell number entry in experiment [2] (MDA cancer cells alone treated with PTX (MDA+PTX) (FIG. 4a)) is listed as “increased somewhat”. The “expression of CSC markers” value in experiment [2] (MDA cancer cells alone treated with PTX (MDA+PTX) (FIG. 4b-d)) is “increased significantly”. Also, in the experiment on MDA-MB-231 cells, the “effectiveness against MDA-MB-231 cells” value is listed as “effective”.
